# According to PubChem BioAssay AID651650 (Sanford-Burnham Center for Chemical Genomics, 2012):
# Active and inactive are the calls of the source.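 The calls were made as follows: active = mean IC50 below 20 µM in each of the two panels, so potent in both; inactive = the rest.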
# Molecular target: Neuropilin-1 (Homo sapiens) (UniProt O14786)
# Test: blockers of CendR peptide binding to NRP-1 – biochemical, FP and AlphaScreen panel, dose response (AID 651650)
# Conditions: NRP-1 b1b2 / RPARPAR peptide binding, FP or AlphaScreen; AlphaScreen, mean of runs
# Chain of Neuropilin-1 (Homo sapiens) (O14786 whole entry, looked up): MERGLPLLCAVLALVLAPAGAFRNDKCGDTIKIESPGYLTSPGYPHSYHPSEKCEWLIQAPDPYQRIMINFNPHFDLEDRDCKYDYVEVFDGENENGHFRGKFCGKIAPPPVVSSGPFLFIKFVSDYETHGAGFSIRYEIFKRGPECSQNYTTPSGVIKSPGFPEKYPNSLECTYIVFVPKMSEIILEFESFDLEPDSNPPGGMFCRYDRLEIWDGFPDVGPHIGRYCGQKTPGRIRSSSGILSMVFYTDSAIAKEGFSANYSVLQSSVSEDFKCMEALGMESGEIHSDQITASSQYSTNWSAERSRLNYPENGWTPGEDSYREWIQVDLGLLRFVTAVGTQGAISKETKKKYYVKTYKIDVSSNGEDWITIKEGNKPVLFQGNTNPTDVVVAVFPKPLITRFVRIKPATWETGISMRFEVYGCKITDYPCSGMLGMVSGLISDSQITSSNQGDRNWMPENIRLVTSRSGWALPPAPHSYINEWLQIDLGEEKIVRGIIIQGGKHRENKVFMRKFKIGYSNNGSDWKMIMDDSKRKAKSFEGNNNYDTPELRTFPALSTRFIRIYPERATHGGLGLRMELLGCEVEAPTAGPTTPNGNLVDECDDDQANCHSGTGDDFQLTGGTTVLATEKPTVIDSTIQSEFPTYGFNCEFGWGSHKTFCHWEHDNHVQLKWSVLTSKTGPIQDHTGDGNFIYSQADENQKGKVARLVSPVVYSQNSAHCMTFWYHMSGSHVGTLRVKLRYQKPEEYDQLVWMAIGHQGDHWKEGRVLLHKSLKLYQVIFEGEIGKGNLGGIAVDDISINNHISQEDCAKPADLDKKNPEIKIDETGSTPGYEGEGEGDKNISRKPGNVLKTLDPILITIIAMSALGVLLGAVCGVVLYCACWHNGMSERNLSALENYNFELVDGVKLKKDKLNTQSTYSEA
row,SMILES,IC50
1,O=c1c2cn[nH]c2nc(SCc2ccccc2F)n1-c1ccc(Br)cc1,> 100 µM (inactive)
2,CCOC(=O)C1(Cc2cccc(F)c2)CCN(Cc2ccon2)CC1,9.02 µM
3,Cc1cc(C)n2c(SCC(=O)Nc3cccc(S(N)(=O)=O)c3)nnc2n1,> 100 µM (inactive)
4,NS(=O)(=O)c1ccc(CNC(=S)NCc2ccc(F)cc2)cc1,> 100 µM (inactive)
5,CCC1CCCCN1CCCNC(=O)C1CCCN(S(=O)(=O)N2CC(C)CC(C)C2)C1 (configuration not stated),6.29 µM
6,CC(=O)C(C(c1ccccc1)N1CCCc2ccccc21)N1CCOCC1 (configuration not stated),inactive
7,O=c1[nH]c(Nc2ccccn2)cc2ccccc12,19.5 µM
8,NNc1ncnc2c1cnn2-c1ccccc1,> 100 µM (inactive)
9,COC(=O)CCCC1=CC2=CC(=O)C(C)(OC(=O)c3cccs3)C(=O)C2=CN1CCCOC(C)C (configuration not stated),5.63 µM
10,Cc1nnc(NC(=O)c2ccccc2C(=O)O)s1,16.6 µM
11,COc1ccc(-c2[nH]ncc2CN(C)CCc2c(C)n[nH]c2C)c(F)c1,> 100 µM (inactive)
12,CN(C)/N=C/c1ccc(Sc2ccc([N+](=O)[O-])cc2[N+](=O)[O-])o1,inactive
13,C=C(C)COc1ccc(-c2[nH]ncc2-c2ccccc2)c(O)c1,> 100 µM (inactive)
14,Cc1cc(NC(=O)COC(=O)c2ccc(C)c(C)c2)no1,> 100 µM (inactive)
15,COc1cc(C(=O)OCC(=O)Nc2c(F)c(F)c(F)c(F)c2F)cc(OC)c1OC,> 100 µM (inactive)
16,COc1ccc(Cl)cc1NC(=O)C(C)N1CCc2ccccc21 (configuration not stated),inactive
17,CC(C(=O)N1CCN(c2ccc(Cl)cc2)CC1)c1ncc(C(F)(F)F)cc1Cl (configuration not stated),> 100 µM (inactive)
18,O=C(O)c1cc(NCc2ccc(F)cc2)ccc1N1CCOCC1,> 100 µM (inactive)
19,O=[N+]([O-])c1ccc(-n2nnnc2CN2CCCCC2)cc1,> 100 µM (inactive)
20,CC(C)C(N)c1csc(NC(=O)Nc2cccc(C(F)(F)F)c2)n1 (configuration not stated),> 100 µM (inactive)
21,Cc1ccccc1NC(=O)c1cccc(NC(=O)CCC(=O)O)c1,> 100 µM (inactive)
22,O=C(O)c1ccccc1CSc1ccccn1,16.5 µM
23,O=C1C=CC(=O)C2C1C1(Cl)C(Cl)=C(Cl)C2(Cl)C1(Cl)Cl (configuration not stated),> 100 µM (inactive)

row,SMILES,IC50
1,O=C(/C=C/c1ccccc1)c1ccccn1,> 100 µM (inactive)
2,Cc1ccc(S(=O)(=O)N2[C@@H](c3ccc(Cl)cc3)C(C(=O)OC(C)(C)C)=CC[C@H]2c2ccc(Cl)c(Cl)c2)cc1,inactive
3,Cc1ccc(OCC(=O)Nc2ccc(C)c(S(=O)(=O)N3CCCCCC3)c2)c([N+](=O)[O-])n1,> 100 µM (inactive)
4,CN(c1ccccc1)S(=O)(=O)c1cccc(NC(=O)CSc2nncn2C)c1,> 100 µM (inactive)
5,O=Cc1ccc(-c2ccccc2C(=O)O)o1,> 100 µM (inactive)
6,CCOC(=O)CNc1ccc2c(c1)OCO2,inactive
7,Cc1ccc(C(=O)C2CN3CCC2CC3)cc1 (configuration not stated),> 100 µM (inactive)
8,COC(=O)CCCC1=CC2=CC(=O)C(C)(OC(=O)c3cccs3)C(=O)C2=CN1CCCCO (configuration not stated),> 100 µM (inactive)
9,O=[N+]([O-])c1ccc(Nc2nc(NC3CCCCC3)nc(N3CCCC3)n2)cc1,> 100 µM (inactive)
10,O=C1CCC/C=C\C[C@@H](CC(=O)N(CCO)Cc2ccccc2)C(=O)N2CCC[C@H]2CO1,> 100 µM (inactive)
11,CCOC(=O)N1CCN(C(=O)c2cc(COc3ccc(OC)cc3Cl)on2)CC1,> 100 µM (inactive)
12,Cc1cccc(NS(=O)(=O)c2cccs2)c1,> 100 µM (inactive)
13,CC1CCN(C(=O)c2[nH]cnc2C(=O)NCc2ccc(CNC(=O)OC(C)(C)C)cc2)CC1,12.9 µM
14,O=C(CN1C2=NCCN2c2ccccc21)c1ccco1,> 100 µM (inactive)
15,COc1ccc([C@H]2/C=C\CN(C(=O)C3CC3)[C@@H](C)C(=O)N2Cc2ccc(F)cc2)cc1,> 100 µM (inactive)
16,CC(=O)Nc1ccccc1OCC(=O)N(Cc1ccccc1)C(C)C,> 100 µM (inactive)
17,Cc1ccc(Cl)cc1N1CCN(C(=O)c2cccc3c(=O)c(C)c(-c4ccccc4)oc23)CC1,> 100 µM (inactive)
18,CCN(CC)C(=O)C1CCCN(C(=O)Nc2ccc3nsnc3c2)C1 (configuration not stated),> 100 µM (inactive)
19,Cc1csc(NC(C)c2nc3cc(C(F)(F)F)ccc3n2CCOCCO)n1 (configuration not stated),> 100 µM (inactive)
20,COc1ccc(OCC(=O)O/N=C(\N)Cc2ccc(Cl)cc2Cl)cc1,inactive
21,CC(O)(c1cccnc1)c1nc(/C=C/c2ccccc2)cs1 (configuration not stated),> 100 µM (inactive)
22,COc1ccc(CCNC(=O)c2c(O)c3cccc4c3n(c2=O)CC4)cc1OC,> 100 µM (inactive)
23,O=C(Nc1ccccc1N1CCOCC1)c1ccc(N2CCCC2=O)cc1,> 100 µM (inactive)

# Same assay, conditions: NRP-1 b1b2 / RPARPAR peptide binding, FP or AlphaScreen; AlphaScreen, run 1; individual panel run IC50
row,SMILES,IC50 [µM]
1,O=c1c2cn[nH]c2nc(SCc2ccccc2F)n1-c1ccc(Br)cc1,> 100
2,CCOC(=O)C1(Cc2cccc(F)c2)CCN(Cc2ccon2)CC1,9.02
3,Cc1cc(C)n2c(SCC(=O)Nc3cccc(S(N)(=O)=O)c3)nnc2n1,> 100
4,NS(=O)(=O)c1ccc(CNC(=S)NCc2ccc(F)cc2)cc1,> 100
5,CCC1CCCCN1CCCNC(=O)C1CCCN(S(=O)(=O)N2CC(C)CC(C)C2)C1 (configuration not stated),6.29
6,CC(=O)C(C(c1ccccc1)N1CCCc2ccccc21)N1CCOCC1 (configuration not stated),72.2
7,O=c1[nH]c(Nc2ccccn2)cc2ccccc12,19.6
8,NNc1ncnc2c1cnn2-c1ccccc1,> 100
9,COC(=O)CCCC1=CC2=CC(=O)C(C)(OC(=O)c3cccs3)C(=O)C2=CN1CCCOC(C)C (configuration not stated),5.63
10,Cc1nnc(NC(=O)c2ccccc2C(=O)O)s1,16.6
11,COc1ccc(-c2[nH]ncc2CN(C)CCc2c(C)n[nH]c2C)c(F)c1,> 100
